What all share (assay type): in vivo
In one assay the test system is granary weevils. Put plainly: Granary weevil test on treated wheat kernels. The note with it: 5% in isopropyl alcohol, 3 week period. The method, then:
Ten replicates of 30 kernels of wheat were immersed into the test compound and allowed to dry for 24 hours. The grains were then transferred to a test container, and 10 granary weevils were released. Test containers were secured and left for a 3 week period. At the end of this time, the wheat grains were examined for developing larvae and damage by larvae. […] Ten additional replicates treated with isopropyl alcohol were prepared to serve as controls.

The next assay has as its system psyllids. The assay is described as follows: Psyllid repellency on potato choice assays. The following applies: 3% compound; potato plants; 100 psyllids per cage; control 50/50.
Assay [1] relates to Euschistus heros-Neotropical Brown Stink Bugs. Put plainly: Stink bug feeding damage on soybean pods. The following applies: 3% compound, soybean plants at R6 stage, 48 hours.
The next assay relates to saw tooth grain beetles. Put plainly: Repellency of test compounds on grain beetles, treated corn kernels. The note with it: 5% in isopropyl alcohol, 3 week period. The method, then:
Ten replicates of 30 kernels of corn are immersed into the test compound and allowed to dry for 24 hours. The kernels are then transferred to a test container, and 10 saw tooth grain beetles are released. Test containers are secured and left for a 3 week period. At the end of this time, the […] grains are examined for feeding damage. […] Ten additional replicates treated with isopropyl alcohol are prepared to serve as controls.

The test system of assay [2] is brown marmorated stink bugs (BMSB). Put plainly: Repellency as feeding deterrence in brown marmorated stink bugs, treated filter paper with green bean. The note with it: compound at 3.5% in a 57% Ethanol:43% water solution; control 38%. The method, then: A test was designed to measure the repellency as feeding deterrence in brown marmorated stink bugs (BMSB). Five replicates of 5 BMSBs were introduced into test arenas, containing one 60 mm×15 mm Petri dish with treated filter papers in which a food source (green bean) was attached, at the start of the test. The small Petri dishes containing the treated filter paper and food source were covered with a fitted Petri dish lid in between observation times, and were removed 5 minutes before each observation time to prevent stink bugs from feeding until sated. The distribution of the BMSBs was observed and documented hourly for 5 hours.

`CC/C(C)=C/CC/C(C)=C/CC1CCCC1=O` (centres unmarked) [Methyl Apritone]: in the assay on granary weevils, the “Increased Repellency vs. Control Repellency” value is reported as 11%. In the assay with psyllids, the “Number of Psyllids Choosing each Treatment: Treated” value is on record as 30 and the “Number of Psyllids Choosing each Treatment: Untreated” value worked out at 70. Further, in assay [1], the “% Antifeedent Activity” value was 60%. The “Increased Repellency vs. Control Repellency” value in the assay with saw tooth grain beetles was found to be 10%.
In the case of `CCCCCC1C(=O)CCC1CC(=O)OCCC` (centres unmarked) [Propyl Dihydrojasmonate], in assay [2], the “Repellency averaged over 5 hours” value is listed as 100%. For the same compound, the “Increased Repellency vs. Control Repellency” value in the assay on granary weevils was found to be 8%. Besides, in the assay on psyllids, the “Number of Psyllids Choosing each Treatment: Treated” value is recorded as 30 and the “Number of Psyllids Choosing each Treatment: Untreated” value worked out at 70. In addition, the “% Antifeedent Activity” value in assay [1] is recorded as 100%. Moreover, the “Increased Repellency vs. Control Repellency” value in the assay on saw tooth grain beetles was determined as 10%.
